Measurements taken from ChEMBL document CHEMBL1201862, “PubChem BioAssay data set” (2004).
Calls of active or inactive are those of the source.

Legend:
Coagulation factor XII = biological target: T1, Coagulation factor XII (Homo sapiens, UniProt P00748); format: functional;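 note: activated factor XIIa alpha cleaving a fluorogenic AMC peptide substrate; inhibitor potency from loss of enzyme activity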
T1 sequence (P00748 whole entry): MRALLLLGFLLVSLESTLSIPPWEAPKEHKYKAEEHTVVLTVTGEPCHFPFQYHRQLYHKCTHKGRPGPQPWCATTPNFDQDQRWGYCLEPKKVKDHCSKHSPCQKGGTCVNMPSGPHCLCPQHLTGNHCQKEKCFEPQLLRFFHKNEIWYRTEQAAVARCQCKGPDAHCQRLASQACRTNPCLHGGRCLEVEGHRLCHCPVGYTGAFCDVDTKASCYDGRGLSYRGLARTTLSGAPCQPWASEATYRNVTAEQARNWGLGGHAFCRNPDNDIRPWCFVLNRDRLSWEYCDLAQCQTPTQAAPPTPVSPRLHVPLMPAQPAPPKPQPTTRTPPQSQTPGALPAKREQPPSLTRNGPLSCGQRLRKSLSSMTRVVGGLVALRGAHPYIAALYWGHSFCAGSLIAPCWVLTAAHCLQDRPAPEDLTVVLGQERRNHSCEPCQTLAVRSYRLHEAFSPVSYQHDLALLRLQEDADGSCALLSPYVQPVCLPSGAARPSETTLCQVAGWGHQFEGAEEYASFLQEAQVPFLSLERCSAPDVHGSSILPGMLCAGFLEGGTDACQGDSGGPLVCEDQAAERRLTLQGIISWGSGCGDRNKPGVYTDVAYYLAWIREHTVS

Prothrombin = Prothrombin (Homo sapiens, UniProt P00734); experiment: Thrombin 1536 HTS Dose Response Confirmation. [Related pubchem assays: 1046 (Thrombin 1536 HTS; hits were confirmed in this assay)]; format: functional
[1] = biological target: T2, Mannose-6-phosphate isomerase (Homo sapiens, UniProt P34949); experiment: phosphomannose isomerase inhibition – biochemical, fluorescence intensity, confirmation (AID 1535)
T2 sequence (P34949 whole entry): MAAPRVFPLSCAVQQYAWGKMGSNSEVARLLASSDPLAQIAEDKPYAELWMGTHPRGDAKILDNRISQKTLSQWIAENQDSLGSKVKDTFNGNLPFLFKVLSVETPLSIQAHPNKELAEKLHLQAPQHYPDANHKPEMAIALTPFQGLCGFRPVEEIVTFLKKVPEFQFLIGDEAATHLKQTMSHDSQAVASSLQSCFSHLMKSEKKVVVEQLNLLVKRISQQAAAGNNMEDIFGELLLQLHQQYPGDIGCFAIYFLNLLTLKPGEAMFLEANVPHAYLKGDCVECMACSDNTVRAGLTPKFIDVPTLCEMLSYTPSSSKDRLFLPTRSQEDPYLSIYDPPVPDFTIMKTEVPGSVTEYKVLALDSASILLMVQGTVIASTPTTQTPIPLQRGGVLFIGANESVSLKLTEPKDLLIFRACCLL

Phosphomannomutase 2 = biological target: T3, Phosphomannomutase 2 (Homo sapiens, UniProt O15305); experiment: Counter screen SAR assay for PMM2 inhibitors via a fluorescence intensity assay. [Related pubchem assays (depositor defined):AID1545, AID1574]
T3 sequence (O15305 whole entry): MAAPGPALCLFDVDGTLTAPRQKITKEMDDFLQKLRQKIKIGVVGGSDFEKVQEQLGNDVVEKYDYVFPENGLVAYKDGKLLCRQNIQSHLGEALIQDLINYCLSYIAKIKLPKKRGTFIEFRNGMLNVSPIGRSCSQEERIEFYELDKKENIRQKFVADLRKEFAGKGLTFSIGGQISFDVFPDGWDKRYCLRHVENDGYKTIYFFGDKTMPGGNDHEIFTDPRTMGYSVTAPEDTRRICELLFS

Estrogen receptor beta = Estrogen receptor beta (Homo sapiens, UniProt Q92731); experiment: blockers of SRC-3 recruitment to ERβ – biochemical, ELISA, streptavidin-HRP readout, orthogonal assay, confirmation (AID 1060)
Sequence of Estrogen receptor beta (Q92731 whole entry): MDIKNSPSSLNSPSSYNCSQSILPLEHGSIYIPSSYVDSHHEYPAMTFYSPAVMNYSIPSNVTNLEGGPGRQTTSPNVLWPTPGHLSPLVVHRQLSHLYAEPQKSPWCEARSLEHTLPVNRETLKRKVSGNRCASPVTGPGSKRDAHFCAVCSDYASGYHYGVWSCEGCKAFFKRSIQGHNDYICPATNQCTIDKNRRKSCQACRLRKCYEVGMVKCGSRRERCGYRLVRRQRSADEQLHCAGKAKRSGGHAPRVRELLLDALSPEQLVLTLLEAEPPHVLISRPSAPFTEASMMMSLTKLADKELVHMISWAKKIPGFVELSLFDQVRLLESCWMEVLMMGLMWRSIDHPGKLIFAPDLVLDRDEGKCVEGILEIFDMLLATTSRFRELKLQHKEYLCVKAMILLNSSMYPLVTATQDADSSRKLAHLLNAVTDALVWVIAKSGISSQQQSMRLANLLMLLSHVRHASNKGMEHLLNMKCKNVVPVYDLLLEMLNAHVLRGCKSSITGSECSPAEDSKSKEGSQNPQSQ

[2] = M. tuberculosis H37Rv growth inhibitors, H37Rv strain (AID 1626); format: functional
[3] = viability of uninfected HEp-2 cells – cell-based, HTS, cytotoxicity control for RSV inhibitor project, dose response (AID 2410); format: functional; conditions: human respiratory syncytial virus
[4] = biological target: G-protein coupled receptor 55 (Homo sapiens, UniProt Q9Y2T6); experiment: inhibition of LPI-stimulated GPR55 beta-arrestin translocation – imaging, U2OS, beta-arrestin-GFP, LPI agonist, primary screen (AID 2013); format: functional;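 note: antagonist potency measured as reduced agonist-driven arrestin aggregation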
Sequence of G-protein coupled receptor 55 (Q9Y2T6 whole entry): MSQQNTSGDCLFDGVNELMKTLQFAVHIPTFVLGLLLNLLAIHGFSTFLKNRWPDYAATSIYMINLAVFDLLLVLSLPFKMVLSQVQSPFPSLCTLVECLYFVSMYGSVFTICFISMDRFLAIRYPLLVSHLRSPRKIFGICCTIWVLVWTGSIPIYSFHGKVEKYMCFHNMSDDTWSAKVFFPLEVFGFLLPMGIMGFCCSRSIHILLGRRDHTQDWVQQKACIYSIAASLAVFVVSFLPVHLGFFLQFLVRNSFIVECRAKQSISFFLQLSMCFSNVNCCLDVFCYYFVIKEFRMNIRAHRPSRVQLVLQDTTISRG

[5] = A cytotoxicity screen of small molecule inhibitors of the PhoP region in Salmonella typhi identified in the primary screen. [Related pubchem assays: 1850, 1864, 1985 ]; format: functional
[6] = biological target: DNA dC->dU-editing enzyme APOBEC-3G (Homo sapiens, UniProt Q9HC16); experiment: Dose Response confirmation of small molecule APOBEC3G DNA Deaminase Inhibitors via a fluorescence-based single-stranded DNA deaminase assay. [Related pubchem assays (depositor defined):AID493012, AID493028]; format: functional
Sequence of DNA dC->dU-editing enzyme APOBEC-3G (Q9HC16 whole entry): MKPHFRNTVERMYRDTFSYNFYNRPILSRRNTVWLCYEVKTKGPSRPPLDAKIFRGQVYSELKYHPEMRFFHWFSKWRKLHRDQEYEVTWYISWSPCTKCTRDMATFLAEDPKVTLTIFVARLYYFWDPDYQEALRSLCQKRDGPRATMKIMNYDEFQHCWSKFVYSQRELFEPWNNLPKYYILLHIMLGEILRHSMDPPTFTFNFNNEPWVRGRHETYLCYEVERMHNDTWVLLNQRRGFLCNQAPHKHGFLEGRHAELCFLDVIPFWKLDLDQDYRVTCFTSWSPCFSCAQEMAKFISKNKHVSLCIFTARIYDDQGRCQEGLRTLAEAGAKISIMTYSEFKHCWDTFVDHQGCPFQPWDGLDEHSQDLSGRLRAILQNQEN

[7] = biological target: DNA dC->dU-editing enzyme APOBEC-3A (Homo sapiens, UniProt P31941); experiment: A3A deaminase inhibition for selectivity – biochemical, dose response (AID 504722); format: functional
Sequence of DNA dC->dU-editing enzyme APOBEC-3A (P31941 whole entry): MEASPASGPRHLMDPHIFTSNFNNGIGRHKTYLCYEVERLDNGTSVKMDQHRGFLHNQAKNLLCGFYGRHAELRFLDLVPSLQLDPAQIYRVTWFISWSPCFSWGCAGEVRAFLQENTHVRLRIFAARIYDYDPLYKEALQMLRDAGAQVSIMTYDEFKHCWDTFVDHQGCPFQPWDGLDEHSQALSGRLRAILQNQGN

[8] = biological target: T4, Rac GTPase-activating protein 1 (Homo sapiens, UniProt Q9H0H5); experiment: blockers of MgcRacGAP-driven Rac1 GTP hydrolysis – biochemical, ADP Hunter fluorescence, primary and confirmatory, confirmation (AID 624330); format: functional
T4 sequence (Q9H0H5 whole entry): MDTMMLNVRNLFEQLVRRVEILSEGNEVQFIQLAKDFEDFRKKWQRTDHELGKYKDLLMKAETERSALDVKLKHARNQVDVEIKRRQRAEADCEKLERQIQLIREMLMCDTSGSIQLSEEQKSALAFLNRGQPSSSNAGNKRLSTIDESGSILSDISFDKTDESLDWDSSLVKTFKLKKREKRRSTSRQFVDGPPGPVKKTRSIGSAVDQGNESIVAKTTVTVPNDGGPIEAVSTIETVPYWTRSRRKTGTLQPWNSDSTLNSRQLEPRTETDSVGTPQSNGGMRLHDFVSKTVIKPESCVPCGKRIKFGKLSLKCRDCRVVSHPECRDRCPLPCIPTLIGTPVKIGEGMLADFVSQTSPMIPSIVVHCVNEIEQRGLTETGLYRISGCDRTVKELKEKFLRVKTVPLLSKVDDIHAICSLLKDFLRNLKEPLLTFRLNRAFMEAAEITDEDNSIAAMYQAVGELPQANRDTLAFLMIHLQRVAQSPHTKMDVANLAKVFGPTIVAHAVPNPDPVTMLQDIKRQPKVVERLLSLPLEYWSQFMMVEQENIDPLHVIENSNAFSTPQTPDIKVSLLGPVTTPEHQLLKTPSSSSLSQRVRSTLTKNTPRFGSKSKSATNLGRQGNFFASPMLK

Cytochrome P450 3A4 = Cytochrome P450 3A4 (Homo sapiens, UniProt P08684); conditions: Potency;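 note: confirmatory qHTS run detecting inhibitors and substrates of CYP3A4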
Sequence of Cytochrome P450 3A4 (P08684 whole entry): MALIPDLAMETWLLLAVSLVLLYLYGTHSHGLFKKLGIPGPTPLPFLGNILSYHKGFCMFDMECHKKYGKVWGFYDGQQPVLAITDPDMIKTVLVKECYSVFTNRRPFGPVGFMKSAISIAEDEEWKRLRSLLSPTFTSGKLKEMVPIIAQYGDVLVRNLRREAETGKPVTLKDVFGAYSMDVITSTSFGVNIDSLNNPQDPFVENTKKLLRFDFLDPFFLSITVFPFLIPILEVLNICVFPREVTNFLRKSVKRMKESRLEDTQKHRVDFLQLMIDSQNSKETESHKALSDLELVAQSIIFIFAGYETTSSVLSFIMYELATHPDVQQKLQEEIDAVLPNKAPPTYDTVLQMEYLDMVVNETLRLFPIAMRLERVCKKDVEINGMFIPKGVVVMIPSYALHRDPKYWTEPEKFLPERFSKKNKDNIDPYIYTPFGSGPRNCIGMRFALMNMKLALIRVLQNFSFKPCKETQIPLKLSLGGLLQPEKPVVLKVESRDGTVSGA

[9] = A Cell Based Secondary Assay To Explore Cytotoxicity of Compounds that Sensitize Mycobacterium Tuberculosis to Beta-Lactam Antibiotics.; format: functional
[10] = viability of HCT116 lacking mutant beta-catenin – cell-based, human colon tumor, dose response (AID 1045); format: functional;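 note: HCT116 colon tumor cells with beta catenin knocked out; cells exposed to compound for 60 hours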
[11] = viability of PTEN-deleted HCT116 cells – cell-based, HCT116 PTEN knockout, dose response (AID 1047); format: functional;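 note: HCT116 colon tumor cells with PTEN knocked out; cells exposed to compound for 60 hours before readout; potency for loss of cell viability measured by luminescence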
Large T antigen = Large T antigen (Simian virus 40, UniProt P03070); format: functional, Betapolyomavirus macacae;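 note: Confirmatory-stage PubChem screen for compounds that inhibit SV40 T antigen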
Sequence of Large T antigen (P03070 whole entry): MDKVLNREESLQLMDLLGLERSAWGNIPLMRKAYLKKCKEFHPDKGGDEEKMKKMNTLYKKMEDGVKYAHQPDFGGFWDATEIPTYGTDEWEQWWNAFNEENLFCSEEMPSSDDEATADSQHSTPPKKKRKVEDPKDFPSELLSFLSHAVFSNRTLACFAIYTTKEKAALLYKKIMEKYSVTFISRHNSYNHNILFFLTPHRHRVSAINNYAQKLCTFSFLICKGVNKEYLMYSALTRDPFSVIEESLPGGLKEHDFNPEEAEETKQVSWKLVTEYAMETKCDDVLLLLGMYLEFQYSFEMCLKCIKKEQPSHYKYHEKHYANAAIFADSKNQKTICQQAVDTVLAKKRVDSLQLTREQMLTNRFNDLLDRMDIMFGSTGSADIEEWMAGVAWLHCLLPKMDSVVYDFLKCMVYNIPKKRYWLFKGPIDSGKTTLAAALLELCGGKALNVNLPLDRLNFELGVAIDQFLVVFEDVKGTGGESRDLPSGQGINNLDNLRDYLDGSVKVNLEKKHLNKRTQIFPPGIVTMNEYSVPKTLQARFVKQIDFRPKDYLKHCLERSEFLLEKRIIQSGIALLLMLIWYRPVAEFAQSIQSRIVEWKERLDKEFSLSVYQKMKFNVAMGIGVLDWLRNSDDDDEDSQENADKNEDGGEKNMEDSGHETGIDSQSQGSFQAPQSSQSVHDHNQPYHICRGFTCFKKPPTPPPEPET

Protein skinhead-1 = biological target: T5, Protein skinhead-1 (Caenorhabditis elegans, UniProt P34707); format: functional
T5 sequence (P34707 whole entry): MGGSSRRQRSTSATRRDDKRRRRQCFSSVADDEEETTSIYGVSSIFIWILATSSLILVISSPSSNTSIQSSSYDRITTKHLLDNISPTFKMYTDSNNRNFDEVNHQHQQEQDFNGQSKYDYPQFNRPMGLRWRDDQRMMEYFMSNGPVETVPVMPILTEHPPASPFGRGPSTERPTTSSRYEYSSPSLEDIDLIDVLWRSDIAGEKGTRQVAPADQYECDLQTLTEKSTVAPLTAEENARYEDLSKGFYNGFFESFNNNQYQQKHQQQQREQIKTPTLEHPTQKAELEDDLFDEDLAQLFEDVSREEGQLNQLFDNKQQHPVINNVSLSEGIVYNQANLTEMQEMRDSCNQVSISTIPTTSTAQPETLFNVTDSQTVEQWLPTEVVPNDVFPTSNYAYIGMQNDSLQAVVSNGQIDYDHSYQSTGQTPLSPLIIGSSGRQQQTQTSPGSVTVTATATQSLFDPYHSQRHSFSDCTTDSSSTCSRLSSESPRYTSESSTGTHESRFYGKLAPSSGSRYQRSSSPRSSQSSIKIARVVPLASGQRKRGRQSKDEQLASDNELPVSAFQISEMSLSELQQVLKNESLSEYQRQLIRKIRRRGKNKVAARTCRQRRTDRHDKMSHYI

CN1C(=O)/C(=N/OC(=O)c2ccccc2)c2ccccc21
IC50 (Coagulation factor XII): 4.93 µM (active)
IC50 (Prothrombin): 5.05 µM (active)

O=[N+]([O-])c1c(Br)cccc1/N=c1\ssnc1Cl
IC50 [1]: 7.37 µM (active)
IC50 (Phosphomannomutase 2): 4.8 µM (active)

CC1(C)C(=O)Nc2ccccc2N1C(=O)COc1ccc(S(=O)(=O)N2CCOCC2)cc1Cl
IC50 (Estrogen receptor beta): < 0.023 µM (not active)

Cc1c(Cl)cccc1/N=c1\ssnc1Cl
IC50 [1]: > 100 µM (inactive)
IC50 (Phosphomannomutase 2): > 100 µM (inactive)

CC(C)OC(=O)c1ccc(NC(=O)c2cncc(Br)c2)cc1
IC50 [2]: > 100 µM (active)
CC50 [3]: > 50 µM (active)

CCOC(=O)c1c(NC(=O)C2=C(C)N=C(S)NC2c2ccc(CC)cc2)sc(C)c1C (configuration not stated)
IC50 [4]: 1.64 µM (active)

Cc1cc(=O)oc2c(CN(C)Cc3ccccc3)c(O)ccc12
EC50 [5]: > 50 µM (active)

Clc1nss/c1=N\c1cnc2ccccc2c1
IC50 [1]: 67.2 µM (active)
IC50 (Phosphomannomutase 2): > 100 µM (inactive)

Sc1nnc(-c2ccncc2)n1/N=C/C=C/c1ccco1
IC50 (Coagulation factor XII): 45.3 µM (active)
IC50 [6]: 2.54 µM (active)
IC50 [7]: 26.7 µM (active)
IC50 [8]: 81.9 µM (active)

COC(=O)[C@@H]1C[C@@H]2CC[C@@H](O)C[C@@H]2N1Cc1ccc(C(F)(F)F)cc1
AC50 (Cytochrome P450 3A4): 10 µM (inconclusive)

COc1ccc(-c2coc3c(O)c(OC)ccc3c2=O)cc1 [RETUSIN 7-METHYL ETHER]
AC50 (Cytochrome P450 3A4): 31.6 µM (inconclusive)

Cc1cc[n+](CC(=O)c2ccc(NC(=O)c3ccccc3)cc2)cc1
EC50 [5]: > 50 µM (active)

COc1ccc(NC(=O)CN2CCN(C3c4ccccc4-c4ccccc43)CC2)c(OC)c1
CC50 [9]: > 40 µM (active)
IC50 [4]: 2.19 µM (active)

CC(/C=C(\O)c1ccc(C)o1)=N\c1ccc2c(c1)OCO2
IC50 [2]: > 100 µM (active)

CCOC(=O)c1cn[nH]c1N
IC50 [2]: > 100 µM (active)

COc1ccc(/N=C2\C(=O)Nc3ccccc32)cc1
IC50 [2]: > 100 µM (active)

Cc1cccc(N(C(=O)CCC(=O)Nc2ccccn2)C(C(=O)NC(C)C)c2ccc(O)cc2)c1 (configuration not stated)
EC50 [5]: > 50 µM (active)

COc1ccc(OCC(O)Cn2c(=N)n(Cc3ccccc3)c3ccccc32)cc1 (configuration not stated)
EC50 [10]: 7.38 µM (active)
IC50 [4]: 3.61 µM (active)
EC50 [11]: 7.31 µM (active)

COc1ccc(/C=N/n2c(S)nnc2-c2cc(C)[nH]n2)cc1
IC50 [6]: 3.83 µM (active)
IC50 [7]: > 100 µM (inactive)

CC(/C=N/n1c(S)nnc1-c1ccncc1)=C\c1ccco1
IC50 (Large T antigen): 45 µM (active)
IC50 [6]: 2.71 µM (active)
IC50 [7]: > 100 µM (inactive)

COc1ccccc1C1CN(c2ccc(F)cc2F)N=C1c1cccs1 (configuration not stated)
IC50 (Protein skinhead-1): > 100 µM (inactive)
EC50 [5]: > 50 µM (active)

Cc1cc(=O)cc2oc3cc(N)c(-c4c(C)cc(O)cc4O)c(C)c3nc1-2
AC50 (Cytochrome P450 3A4): 39.8 µM (inconclusive)
